Laboratory results as given in patent publication US6451341B1, “Time release formulation of vitamins, minerals and other beneficial supplements” (priority 1990, dated 2002).

Key:
[1] = tested on: skin cancer; experiment: Mouse skin carcinogenesis system; type: in vivo; conditions: given alone
[2] = tested on: skin tumors; experiment: Effects of antioxidants on skin tumor promotion (DMBA initiation + TPA promotion), antioxidants applied with TPA; type: in vivo, mice (SENCAR); conditions: 30 weeks
Source text: In one important aspect of the present invention, the formulation includes at least one antioxidant. The antioxidant is preferably selected from the group consisting of butylated hydroxyanisole, butylated hydroxytoluene and propyl gallate. The inventive formulation may include one, or, more preferably, several of the preferred antioxidants in combination. According to one embodiment, the inventive formulation includes butylated hydroxyanisole (BHA) or butylated hydroxytoluene (BHT), and propyl gallate. BHA, BHT and propyl gallate are all antioxidants used to stabilize cosmetic, pharmaceutical, and food products. It has been reported that these agents protect normal cells against radiation, free radicals, toxic chemicals and chemical carcinogens. […] The SENCAR mouse is a valid testing system for the ability of a compound to inhibit tumor initiation and promotion. A good dose-response relationship exists for 7, 12-dimethylbenzanthracene to initiate skin tumors in these mice and they are sensitive to TPA (12-0-tetradecanoylphorbol-13-acetate) promotion [Slaga(1983) “Multistage Skin Carcinogenesis and Specificity of Inhibitors” in: Modulation and Mediation of Cancer by Vitamins, pp. 10-23.]. Further, the preferred antioxidants of the present invention have been reported to protect against cardiovascular disorders, enhance immune function and increase longevity. The preferred antioxidants of the present invention work synergistically with several vitamins, minerals, amino acids, enzymes, and other antioxidants or free radial scavengers included in the formulation of the present invention as will be described in detail below.

[3] = tested on: spontaneous tumors; experiment: Effects of antioxidants in the diet on aging and spontaneous tumor formation in mice; type: in vivo; conditions: 0.5% in normal laboratory chow; 100 SENCAR mice per group
Source text: Table 2 illustrates the effects of certain antioxidant components of the present formulation on all the known spontaneous tumor formations and longevity in mice.

[4] = 0.5 mg applied simultaneously with TPA 2x/wk, 30 female SENCAR mice

Compound: CC1=C(/C=C/C(C)=C/C=C/C(C)=C/C=C/C=C(C)/C=C/C=C(C)/C=C/C2=C(C)CCCC2(C)C)C(C)(C)CCC1 [B-carotene, Beta carotene]
- inhibitory activity in mouse skin carcinogenesis [1]: lack of an inhibitory activity
- Tumor Response (% Inhibition) [2, 4]: 20 % Inhibition

Compound: [Se] [Selenium]
- Tumor Response (% Inhibition) ([2]; 0.004 mg applied simultaneously with TPA 2x/wk): 23 % Inhibition

Compound: Cc1cc(C(C)(C)C)c(O)c(C(C)(C)C)c1 [BHT, butylated hydroxytoluene]
- Increase in Lifespan (%) [3]: 124%
- Spontaneous Tumor Formation (% of Control) [3]: 56 % of Control
- Tumor Response (% Inhibition) [2, 4]: 32 % Inhibition

Compound: O=C1O[C@H]([C@@H](O)CO)C(O)=C1O [Vitamin C]
- Tumor Response (% Inhibition) [2, 4]: 30 % Inhibition

Compound: Vitamin E
- Tumor Response (% Inhibition) ([2]; 0.1 mg applied simultaneously with TPA 2x/wk): 25 % Inhibition

Compound: COc1ccc(O)c(C(C)(C)C)c1 [BHA, butylated hydroxyanisole]
- Increase in Lifespan (%) [3]: 132%
- Spontaneous Tumor Formation (% of Control) [3]: 46 % of Control
- Tumor Response (% Inhibition) [2, 4]: 35 % Inhibition

Compound: CCCOC(=O)c1cc(O)c(O)c(O)c1 [Propyl gallate, propyl gallate]
- Increase in Lifespan (%) [3]: 127%
- Spontaneous Tumor Formation (% of Control) [3]: 62 % of Control
- Tumor Response (% Inhibition) [2, 4]: 40 % Inhibition
